{"source": "paper PMC10459870", "about": "“A New Diterpenoid of Indonesian Scoparia dulcis Linn: Isolation and Cytotoxic Activity against MCF-7 and T47D Cell Lines” (Molecules, 2023)", "key": {"[1]": {"system": "MCF-7 breast cancer cells", "test": "MTT cytotoxic activity assay, MCF-7", "assay_type": "cell-based", "settings": "for IC50: Homo sapiens, MCF7, MTT, 24 h treatment, mean ± SD; for Selectivity Index (SI) MCF-7: IC50 Vero / IC50 MCF-7", "method": "(§1) A cytotoxic test was performed to obtain an overview of the activity of the sample on the inhibition of cancer cells. The parameter used was the inhibition concentration of 50% (IC50), a concentration that inhibits cells by 50% of the cell population. The IC50 value was calculated from the results of a linear regression between log concentration and the percentage of cell viability.\n(§2) The cell lines were obtained from the Parasitology Laboratory, Faculty of Medicine, Universitas Gadjah Mada, Yogyakarta, Indonesia. Each MCF-7 and T47D cell was cultured with complete media, namely, DMEM media for MCF-7 and RPMI for T47D, which contained 10% FBS, 2% penicillin–streptomycin, and 0.5% fungzon. Cultures were stored in a 5% CO2 incubator and for harvesting cells using trypsin, as well as sample solvents using DMSO.\n(§3) Compound (1) was tested for its cytotoxic activity using an MTT assay on MCF-7 and T47D breast cancer cells. Briefly, 1 × 10^4 MCF-7 and T47D cells/wells were grown in 96 well plates and incubated for 24 h in a CO2 incubator. The cells were treated with sample concentrations of 200, 100, 50, 25, 12.5, and 6.25 μg/mL for MCF-7 and 50, 25, 12.5, 6.25, 3.125, and 1.5625 μg/mL for T47D and then incubated for 24 h in a CO2 incubator. After incubation, the condition of the cells was observed under a microscope. The cell media was discarded followed by washing with phosphate-buffered saline (PBS). Then 0.5 mg/mL MTT reagent, up to 100 µL, was added to each well followed by incubation again for 4 h in a CO2 incubator. The cells were observed under a microscope, and after the formazan was clear, 100 µL of SDS stopper reagent was added in 0.01 N HCl. The plate was incubated at room temperature in a dark place for 1 × 24 h, then the absorbance was read with a microplate reader at a wavelength of 595 nm. Analysis of the absorbance data for the cytotoxic test was carried out by calculating the percentage of viable cells using the following formula.\n(§4) IC50 values were calculated using a linear regression between sample concentrations and the percent (%)cell viability."}, "T47D breast cancer cells [2]": {"system": "T47D breast cancer cells", "test": "MTT cytotoxic activity assay, T47D", "assay_type": "cell-based", "settings": "for IC50: Homo sapiens, T47D, MTT, 24 h treatment, mean ± SD; for Selectivity Index (SI) T47D: IC50 Vero / IC50 T47D", "method": "as §1, §2, §3, §4"}, "Vero cells": {"system": "Vero cells", "test": "MTT cytotoxic activity assay, Vero", "assay_type": "cell-based", "settings": "Chlorocebus sabaeus, mean ± SD"}, "[3]": {"system": "MCF-7 breast cancer cells", "test": "Cell cycle distribution by flow cytometry (PI), MCF-7", "assay_type": "cell-based", "method": "(§5) Cell cycle inhibition and apoptosis induction tests were carried out on compound (1). The analysis was performed using the flow cytometry method to determine the percentage of living cells in each phase of the cell cycle.\n(§6) This test was carried out on isolated samples (compound (1)). Culture confluent cells were distributed to 6-well plates, each 2000 µL (for treatment and for cell control). After 24 h of incubation, concentration series were made. The cells were washed with PBS, and 1000 µL of the sample solution with a certain concentration series was put in the well. For the control cells, 1000 µL of culture medium was added well. The cells were again incubated for 24 h in the CO incubator. After incubation, media from the 6-well plates were inserted into a conical tube, then washed with 1000 µL PBS and put into the same conical tube. Then, 200 µL trypsin-EDTA 0.25% was added and incubated for 3 min. Then, 1000 µL of culture medium was also added and resuspended until the cells were released one by one. The cells are then transferred to a conical and centrifuged at 2000 rpm for 3 min. For cell cycle observations, a deep cell precipitates conical tube covered with aluminum foil was dissolved with 400 µL of the PI reagent containing 1 mg/mL PI, 10 mg/mL RNAse, and 0.1% (v/v) Triton-X 100. The cells were resuspended and incubated for 5 min, and then the cell suspension was transferred into a flow cytometry tube for analysis (Ayers et al., 2011). For observations of apoptosis, the supernatant was discarded, then 100 µL of Annexin-V-FLUOS staining was added consisting of 100 µL binding buffer, 2 µL Annexin V, and 2 µL PI. This was followed by incubation in a dark space for 10 min and then analysis using a flow cytometer."}, "T47D breast cancer cells [4]": {"system": "T47D breast cancer cells", "test": "Cell cycle distribution by flow cytometry (PI), T47D", "assay_type": "cell-based", "method": "as §5\nas §6, with “The cells were resuspended and incubated for 5 min, and then the cell suspension was transferred into a flow cytometry tube for analysis (Ayers et al., 2011). For observations of apoptosis, the supernatant was discarded, then 100 µL of Annexin-V-FLUOS staining was added consisting of 100 µL binding buffer, 2 µL Annexin V, and 2 µL PI. This was followed by incubation in a dark space for 10 min and then analysis using a flow cytometer.” left out"}, "[5]": {"system": "MCF-7 breast cancer cells", "test": "Apoptosis induction, Annexin V/PI flow cytometry, MCF-7", "assay_type": "cell-based", "method": "(§7) The method used in this study was the detected Annexin V method using flow cytometry, which allowed for observing the induction of apoptosis that occurs in cells following treatment. Annexin V is a member of a family of phospholipid-binding proteins that are strongly negatively charged on the cell membrane. Cell death resulting from apoptosis or necrosis can be differentiated using propidium iodide (PI) staining intercalation with DNA [24].\nas §6"}, "T47D breast cancer cells [6]": {"system": "T47D breast cancer cells", "test": "Apoptosis induction, Annexin V/PI flow cytometry, T47D", "assay_type": "cell-based", "method": "as §7, §6"}, "PPAR-γ": {"system": "PPAR-γ", "settings": "reported in the literature; read-out: EC50, agonistic activity against PPAR-γ; cited from earlier work"}}}
{"smiles": "C=C1CC(OC(=O)c2ccccc2)C2C(C)(CO)CC(O)CC2(C)C1CCC(C)=CCO", "note": "(stereo not drawn) [Compound (1), 2α-hydroxyscopadiol]", "values": [{"measurement": "IC50", "setting": "[1]", "result": "70.6 ± 1.54", "unit": "µg/mL"}, {"measurement": "Selectivity Index (SI) MCF-7", "setting": "[1]", "result": 0.51}, {"measurement": "cytotoxic activity class, MCF-7", "setting": "[1]; grouped according to IC50", "result": "strong (“strong cytotoxic” IC50 is 10–100 µg/mL)"}, {"measurement": "IC50", "setting": "T47D breast cancer cells [2]", "result": "< 3.12", "unit": "µg/mL"}, {"measurement": "Selectivity Index (SI) T47D", "setting": "T47D breast cancer cells [2]", "result": "> 3"}, {"measurement": "cytotoxic activity class, T47D", "setting": "T47D breast cancer cells [2]; grouped according to IC50", "result": "very strong (“very strong cytotoxic”: IC50 < 10 µg/mL)"}, {"measurement": "IC50", "setting": "Vero cells", "result": "36.5 ± 1.41", "unit": "µg/mL"}, {"measurement": "% Parent, G1, Cell Cycles against MCF-7", "setting": "[3]; 1/2 IC50, 24 h", "result": 76.5, "unit": "%"}, {"measurement": "% Parent, G2-M, Cell Cycles against MCF-7", "setting": "[3]; 1/2 IC50, 24 h", "result": 17.2, "unit": "%"}, {"measurement": "% Parent, G1, Cell Cycles against MCF-7", "setting": "[3]; 1 IC50, 24 h", "result": 78.4, "unit": "%"}, {"measurement": "% Parent, G1, Cell Cycles against T47D", "setting": "T47D breast cancer cells [4]; 1/2 IC50, 24 h", "result": 50.9, "unit": "%"}, {"measurement": "% Parent, G1, Cell Cycles against T47D", "setting": "T47D breast cancer cells [4]; 1 IC50, 24 h", "result": 53.3, "unit": "%"}, {"measurement": "Apoptosis against MCF-7, % Parent, P3 (early apoptosis)", "setting": "[5]; 1/2 IC50, 24 h", "result": 33.5, "unit": "%"}, {"measurement": "Apoptosis against MCF-7, % Parent, P4 (late apoptosis)", "setting": "[5]; 1/2 IC50, 24 h", "result": 16.8, "unit": "%"}, {"measurement": "Apoptosis against MCF-7, % Parent, P4 (late apoptosis)", "setting": "[5]; 1/4 IC50, 24 h", "result": 15.1, "unit": "%"}, {"measurement": "Apoptosis against MCF-7, % Parent, P3 (early apoptosis)", "setting": "[5]; 1 IC50, 24 h", "result": 80.7, "unit": "%"}, {"measurement": "Apoptosis against MCF-7, % Parent, P4 (late apoptosis)", "setting": "[5]; 1 IC50, 24 h", "result": 11.7, "unit": "%"}, {"measurement": "Apoptosis against T47D, % Parent, P3 (early apoptosis)", "setting": "T47D breast cancer cells [6]; 1/2 IC50, 24 h", "result": 6.1, "unit": "%"}, {"measurement": "Apoptosis against T47D, % Parent, P4 (late apoptosis)", "setting": "T47D breast cancer cells [6]; 1/2 IC50, 24 h", "result": 3.0, "unit": "%"}, {"measurement": "Apoptosis against T47D, % Parent, P3 (early apoptosis)", "setting": "T47D breast cancer cells [6]; 1/4 IC50, 24 h", "result": 5, "unit": "%"}, {"measurement": "Apoptosis against T47D, % Parent, P3 (early apoptosis)", "setting": "T47D breast cancer cells [6]; 1 IC50, 24 h", "result": 24.8, "unit": "%"}, {"measurement": "Apoptosis against T47D, % Parent, P4 (late apoptosis)", "setting": "T47D breast cancer cells [6]; 1 IC50, 24 h", "result": 2.9, "unit": "%"}]}
{"smiles": "C=C1[C@@H](OC(C)=O)[C@H](OC(=O)c2ccccc2)[C@H]2[C@@](C)(CCC[C@]2(C)C(=O)O)[C@H]1CC/C(C)=C/CO", "note": "[Compound (3), 4-epi-7α-O-acetylscoparic acid A]", "values": [{"measurement": "EC50", "setting": "PPAR-γ", "result": "900 ± 300", "unit": "nM"}]}
{"smiles": "COc1cccc2c1C(=O)c1c(O)c3c(c(O)c1C2=O)C[C@@](O)(C(=O)CO)C[C@@H]3O[C@H]1C[C@H](N)[C@H](O)[C@H](C)O1", "note": "[Doxorubicin, reference compound]", "values": [{"measurement": "IC50", "setting": "[1]", "result": "16.6 ± 5.85", "unit": "µg/mL"}, {"measurement": "Selectivity Index (SI) MCF-7", "setting": "[1]", "result": 4.2}, {"measurement": "IC50", "setting": "T47D breast cancer cells [2]", "result": "35.1 ± 3.14", "unit": "µg/mL"}, {"measurement": "Selectivity Index (SI) T47D", "setting": "T47D breast cancer cells [2]", "result": "< 3"}, {"measurement": "IC50", "setting": "Vero cells", "result": "69.5 ± 6.8", "unit": "µg/mL"}]}
